# Reference: the supplement of paper PMC10307832
# How the values were obtained:
# Assay in all cases: relative viability (nuclei count vs DMSO), 5 days (fraction); higher = more cells survive
# NCI-H650 = test system: NCI-H650
# Summary of the method: (§1)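 Relative viability equals treated-well nuclei counts divided by vehicle-well nuclei counts. Counts came from 4× images of lung cancer cell lines grown in 1536-well plates for 5 days after pin-tool dosing on the day after seeding. Dosing used one drug alone or a fixed anchor-drug dose plus five library-drug doses (not always all listed) in √10 steps, and values are medians of duplicate plates.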
# NCI-H2405 = test system: NCI-H2405
# Summary of the method: as §1
# COR-L23 = test system: COR-L23
# Summary of the method: as §1
# NCI-H520 = test system: NCI-H520
# Summary of the method: as §1
# LU99A = test system: LU99A
# Summary of the method: as §1
# NCI-H2085 = test system: NCI-H2085
# Summary of the method: as §1
# H3255 = test system: H3255
# Summary of the method: as §1
# SK-MES-1 = test system: SK-MES-1
# Summary of the method: as §1
# NCI-H2087 = test system: NCI-H2087
# Summary of the method: as §1
# HCC-44 = test system: HCC-44
# Summary of the method: as §1
# NCI-H2023 = test system: NCI-H2023
# Summary of the method: as §1
# NCI-H1651 = test system: NCI-H1651
# Summary of the method: as §1
# NCI-H1563 = test system: NCI-H1563
# Summary of the method: as §1
# ChaGo-K-1 = test system: ChaGo-K-1
# Summary of the method: as §1
# NCI-H1944 = test system: NCI-H1944
# Summary of the method: as §1
# HCC-827 = test system: HCC-827
# Summary of the method: as §1
# LCLC-103H = test system: LCLC-103H
# Summary of the method: as §1
# EMC-BAC-2 = test system: EMC-BAC-2
# Summary of the method: as §1
# NCI-H838 = test system: NCI-H838
# Summary of the method: as §1
# EPLC-272H = test system: EPLC-272H
# Summary of the method: as §1
smiles,measurement,setting,value
O=c1cc(-c2cccc3c2Sc2ccccc2S3)oc(N2CCOCC2)c1 + C[C@@H](Oc1cc(-c2cnn(C3CCNCC3)c2)cnc1N)c1c(Cl)ccc(F)c1Cl [Crizotinib] (partner 1 µM),relative viability,NCI-H650; first compound 0.08 µM,0.702
same,relative viability,NCI-H650; first compound 0.253 µM,0.606
same,relative viability,NCI-H650; first compound 0.8 µM,0.74
same,relative viability,NCI-H650; first compound 2.53 µM,0.58
same,relative viability,NCI-H650; first compound 8 µM,0.694
same,relative viability,NCI-H2405; first compound 0.08 µM,0.831
same,relative viability,NCI-H2405; first compound 0.253 µM,0.887
same,relative viability,NCI-H2405; first compound 0.8 µM,0.832
same,relative viability,NCI-H2405; first compound 2.53 µM,0.759
same,relative viability,NCI-H2405; first compound 8 µM,0.853
same,relative viability,COR-L23; first compound 0.08 µM,0.744
same,relative viability,COR-L23; first compound 0.253 µM,0.876
same,relative viability,COR-L23; first compound 0.8 µM,0.792
same,relative viability,COR-L23; first compound 2.53 µM,0.737
same,relative viability,COR-L23; first compound 8 µM,0.616
same,relative viability,NCI-H520; first compound 0.08 µM,0.447
same,relative viability,NCI-H520; first compound 0.253 µM,0.695
same,relative viability,NCI-H520; first compound 0.8 µM,0.976
same,relative viability,NCI-H520; first compound 2.53 µM,0.821
same,relative viability,NCI-H520; first compound 8 µM,0.821
same,relative viability,LU99A; first compound 0.08 µM,0.552
same,relative viability,LU99A; first compound 0.253 µM,0.574
same,relative viability,LU99A; first compound 0.8 µM,0.932
same,relative viability,LU99A; first compound 2.53 µM,0.596
same,relative viability,LU99A; first compound 8 µM,0.701
same,relative viability,NCI-H2085; first compound 0.08 µM,0.913
same,relative viability,NCI-H2085; first compound 0.253 µM,1.06
same,relative viability,NCI-H2085; first compound 0.8 µM,0.939
same,relative viability,NCI-H2085; first compound 2.53 µM,0.832
same,relative viability,NCI-H2085; first compound 8 µM,0.93
same,relative viability,H3255; first compound 0.08 µM,0.89
same,relative viability,H3255; first compound 0.253 µM,0.992
same,relative viability,H3255; first compound 0.8 µM,1.02
same,relative viability,H3255; first compound 2.53 µM,0.747
same,relative viability,H3255; first compound 8 µM,1.26
same,relative viability,SK-MES-1; first compound 0.08 µM,1.03
same,relative viability,SK-MES-1; first compound 0.253 µM,0.949
same,relative viability,SK-MES-1; first compound 0.8 µM,0.937
same,relative viability,SK-MES-1; first compound 2.53 µM,0.925
same,relative viability,SK-MES-1; first compound 8 µM,1.02
same,relative viability,NCI-H2087; first compound 0.08 µM,0.982
same,relative viability,NCI-H2087; first compound 0.253 µM,0.966
same,relative viability,NCI-H2087; first compound 0.8 µM,1.12
same,relative viability,NCI-H2087; first compound 2.53 µM,0.927
same,relative viability,NCI-H2087; first compound 8 µM,1.01
same,relative viability,HCC-44; first compound 0.08 µM,0.811
same,relative viability,HCC-44; first compound 0.253 µM,0.886
same,relative viability,HCC-44; first compound 0.8 µM,0.83
same,relative viability,HCC-44; first compound 2.53 µM,0.859
same,relative viability,HCC-44; first compound 8 µM,0.854
same,relative viability,NCI-H2023; first compound 0.08 µM,0.673
same,relative viability,NCI-H2023; first compound 0.253 µM,0.682
same,relative viability,NCI-H2023; first compound 0.8 µM,0.787
same,relative viability,NCI-H2023; first compound 2.53 µM,0.648
same,relative viability,NCI-H2023; first compound 8 µM,0.646
same,relative viability,NCI-H1651; first compound 0.08 µM,0.916
same,relative viability,NCI-H1651; first compound 0.253 µM,0.889
same,relative viability,NCI-H1651; first compound 0.8 µM,0.916
same,relative viability,NCI-H1651; first compound 2.53 µM,0.882
same,relative viability,NCI-H1651; first compound 8 µM,0.903
same,relative viability,NCI-H1563; first compound 0.08 µM,0.93
same,relative viability,NCI-H1563; first compound 0.253 µM,0.758
same,relative viability,NCI-H1563; first compound 0.8 µM,0.792
same,relative viability,NCI-H1563; first compound 2.53 µM,0.804
same,relative viability,NCI-H1563; first compound 8 µM,0.887
same,relative viability,ChaGo-K-1; first compound 0.08 µM,1.09
same,relative viability,ChaGo-K-1; first compound 0.253 µM,1.35
same,relative viability,ChaGo-K-1; first compound 0.8 µM,1.25
same,relative viability,ChaGo-K-1; first compound 8 µM,1.22
same,relative viability,NCI-H1944; first compound 0.08 µM,1.12
same,relative viability,NCI-H1944; first compound 0.253 µM,1.23
same,relative viability,NCI-H1944; first compound 0.8 µM,1.17
same,relative viability,NCI-H1944; first compound 8 µM,1.08
same,relative viability,HCC-827; first compound 0.08 µM,0.943
same,relative viability,HCC-827; first compound 0.253 µM,0.921
same,relative viability,HCC-827; first compound 0.8 µM,0.997
same,relative viability,HCC-827; first compound 2.53 µM,0.8
same,relative viability,HCC-827; first compound 8 µM,0.967
same,relative viability,LCLC-103H; first compound 0.08 µM,1.06
same,relative viability,LCLC-103H; first compound 0.253 µM,1.07
same,relative viability,LCLC-103H; first compound 0.8 µM,1.06
same,relative viability,LCLC-103H; first compound 2.53 µM,1.05
same,relative viability,LCLC-103H; first compound 8 µM,1.05
same,relative viability,EMC-BAC-2; first compound 0.08 µM,0.856
same,relative viability,EMC-BAC-2; first compound 0.253 µM,0.753
same,relative viability,EMC-BAC-2; first compound 0.8 µM,0.841
same,relative viability,EMC-BAC-2; first compound 2.53 µM,0.784
same,relative viability,EMC-BAC-2; first compound 8 µM,0.817
same,relative viability,NCI-H838; first compound 0.08 µM,0.883
same,relative viability,NCI-H838; first compound 0.253 µM,0.988
same,relative viability,NCI-H838; first compound 0.8 µM,0.82
same,relative viability,NCI-H838; first compound 2.53 µM,0.794
same,relative viability,NCI-H838; first compound 8 µM,0.816
same,relative viability,EPLC-272H; first compound 0.08 µM,0.786
same,relative viability,EPLC-272H; first compound 0.253 µM,0.891
same,relative viability,EPLC-272H; first compound 0.8 µM,1.19
same,relative viability,EPLC-272H; first compound 2.53 µM,0.963
same,relative viability,EPLC-272H; first compound 8 µM,1.08
